We go through eleven molecules from ChEMBL document CHEMBL3991601, “The target landscape of clinical kinase drugs” (Science, 2017).

Structures are written as SMILES. Counter-ions that a name gives are not always drawn. Calls of active or inactive are those of the source. Rule as the data show it, for most assays here: actives have a measured Kd and inactives only a lower limit. Some results are limits rather than exact numbers.

Assay [1] deals with AP2-associated protein kinase 1 (Homo sapiens, UniProt Q2M2I8).
Sequence of AP2-associated protein kinase 1 (Q2M2I8 whole entry): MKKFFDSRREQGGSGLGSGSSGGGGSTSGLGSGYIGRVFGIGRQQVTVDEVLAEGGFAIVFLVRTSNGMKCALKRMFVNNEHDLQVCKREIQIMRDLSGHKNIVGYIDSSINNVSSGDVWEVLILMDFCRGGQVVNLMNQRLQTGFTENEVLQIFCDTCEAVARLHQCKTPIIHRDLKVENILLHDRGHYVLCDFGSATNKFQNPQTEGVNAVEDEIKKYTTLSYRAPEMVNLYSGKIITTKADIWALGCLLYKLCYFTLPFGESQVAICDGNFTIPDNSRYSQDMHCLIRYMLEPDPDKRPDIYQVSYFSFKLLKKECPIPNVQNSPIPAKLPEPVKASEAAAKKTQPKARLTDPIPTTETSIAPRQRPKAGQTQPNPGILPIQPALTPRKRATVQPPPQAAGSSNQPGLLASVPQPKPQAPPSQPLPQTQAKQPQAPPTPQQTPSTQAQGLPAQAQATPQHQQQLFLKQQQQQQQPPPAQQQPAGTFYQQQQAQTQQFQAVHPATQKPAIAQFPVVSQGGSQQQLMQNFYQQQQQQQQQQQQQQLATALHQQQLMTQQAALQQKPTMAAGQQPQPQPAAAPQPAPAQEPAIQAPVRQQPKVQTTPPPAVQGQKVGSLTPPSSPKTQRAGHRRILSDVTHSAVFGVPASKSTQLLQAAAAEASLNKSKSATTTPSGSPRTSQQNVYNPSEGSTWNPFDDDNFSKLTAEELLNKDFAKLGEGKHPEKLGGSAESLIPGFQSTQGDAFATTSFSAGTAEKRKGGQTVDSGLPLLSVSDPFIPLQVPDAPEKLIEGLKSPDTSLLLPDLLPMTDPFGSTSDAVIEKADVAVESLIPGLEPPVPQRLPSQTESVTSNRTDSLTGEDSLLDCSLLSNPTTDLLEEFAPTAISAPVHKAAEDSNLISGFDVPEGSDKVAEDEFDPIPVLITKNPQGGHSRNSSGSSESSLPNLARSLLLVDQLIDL
Assay [2] addresses T1, Structural maintenance of chromosomes protein 1A (Homo sapiens, UniProt Q14683).
T1 sequence (Q14683 whole entry): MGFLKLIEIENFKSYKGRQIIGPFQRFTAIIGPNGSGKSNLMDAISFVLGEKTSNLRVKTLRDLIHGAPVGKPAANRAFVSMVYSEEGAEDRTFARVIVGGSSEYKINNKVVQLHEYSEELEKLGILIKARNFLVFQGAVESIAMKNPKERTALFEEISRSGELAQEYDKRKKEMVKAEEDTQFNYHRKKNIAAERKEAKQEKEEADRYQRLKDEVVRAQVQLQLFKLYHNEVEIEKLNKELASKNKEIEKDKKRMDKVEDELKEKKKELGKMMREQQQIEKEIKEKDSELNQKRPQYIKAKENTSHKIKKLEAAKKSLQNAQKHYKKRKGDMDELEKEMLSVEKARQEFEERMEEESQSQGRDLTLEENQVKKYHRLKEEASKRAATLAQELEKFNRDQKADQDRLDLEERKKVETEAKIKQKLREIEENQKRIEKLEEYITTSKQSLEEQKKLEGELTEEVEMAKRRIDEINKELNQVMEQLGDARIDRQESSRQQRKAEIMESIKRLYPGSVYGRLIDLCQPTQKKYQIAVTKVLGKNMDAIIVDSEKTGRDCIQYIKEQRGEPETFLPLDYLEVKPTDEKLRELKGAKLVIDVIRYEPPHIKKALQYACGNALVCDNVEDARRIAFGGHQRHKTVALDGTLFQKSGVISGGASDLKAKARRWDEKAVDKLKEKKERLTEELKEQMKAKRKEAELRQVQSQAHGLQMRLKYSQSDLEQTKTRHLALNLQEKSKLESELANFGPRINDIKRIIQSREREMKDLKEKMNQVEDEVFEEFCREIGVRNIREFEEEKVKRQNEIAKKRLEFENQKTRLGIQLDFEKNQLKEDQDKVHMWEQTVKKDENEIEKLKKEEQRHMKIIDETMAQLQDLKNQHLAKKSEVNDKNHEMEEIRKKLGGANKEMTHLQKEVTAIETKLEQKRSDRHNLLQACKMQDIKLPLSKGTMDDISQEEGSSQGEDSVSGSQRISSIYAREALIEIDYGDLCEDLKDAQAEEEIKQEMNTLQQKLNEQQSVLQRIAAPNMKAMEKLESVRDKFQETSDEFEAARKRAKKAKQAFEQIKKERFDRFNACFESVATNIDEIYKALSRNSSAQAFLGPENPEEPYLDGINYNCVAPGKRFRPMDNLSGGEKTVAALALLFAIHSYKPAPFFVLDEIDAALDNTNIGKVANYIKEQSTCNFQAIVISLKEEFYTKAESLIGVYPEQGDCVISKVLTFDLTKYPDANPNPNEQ

The target of assay [3] is BMP-2-inducible protein kinase (Homo sapiens, UniProt Q9NSY1).
Sequence of BMP-2-inducible protein kinase (Q9NSY1 whole entry): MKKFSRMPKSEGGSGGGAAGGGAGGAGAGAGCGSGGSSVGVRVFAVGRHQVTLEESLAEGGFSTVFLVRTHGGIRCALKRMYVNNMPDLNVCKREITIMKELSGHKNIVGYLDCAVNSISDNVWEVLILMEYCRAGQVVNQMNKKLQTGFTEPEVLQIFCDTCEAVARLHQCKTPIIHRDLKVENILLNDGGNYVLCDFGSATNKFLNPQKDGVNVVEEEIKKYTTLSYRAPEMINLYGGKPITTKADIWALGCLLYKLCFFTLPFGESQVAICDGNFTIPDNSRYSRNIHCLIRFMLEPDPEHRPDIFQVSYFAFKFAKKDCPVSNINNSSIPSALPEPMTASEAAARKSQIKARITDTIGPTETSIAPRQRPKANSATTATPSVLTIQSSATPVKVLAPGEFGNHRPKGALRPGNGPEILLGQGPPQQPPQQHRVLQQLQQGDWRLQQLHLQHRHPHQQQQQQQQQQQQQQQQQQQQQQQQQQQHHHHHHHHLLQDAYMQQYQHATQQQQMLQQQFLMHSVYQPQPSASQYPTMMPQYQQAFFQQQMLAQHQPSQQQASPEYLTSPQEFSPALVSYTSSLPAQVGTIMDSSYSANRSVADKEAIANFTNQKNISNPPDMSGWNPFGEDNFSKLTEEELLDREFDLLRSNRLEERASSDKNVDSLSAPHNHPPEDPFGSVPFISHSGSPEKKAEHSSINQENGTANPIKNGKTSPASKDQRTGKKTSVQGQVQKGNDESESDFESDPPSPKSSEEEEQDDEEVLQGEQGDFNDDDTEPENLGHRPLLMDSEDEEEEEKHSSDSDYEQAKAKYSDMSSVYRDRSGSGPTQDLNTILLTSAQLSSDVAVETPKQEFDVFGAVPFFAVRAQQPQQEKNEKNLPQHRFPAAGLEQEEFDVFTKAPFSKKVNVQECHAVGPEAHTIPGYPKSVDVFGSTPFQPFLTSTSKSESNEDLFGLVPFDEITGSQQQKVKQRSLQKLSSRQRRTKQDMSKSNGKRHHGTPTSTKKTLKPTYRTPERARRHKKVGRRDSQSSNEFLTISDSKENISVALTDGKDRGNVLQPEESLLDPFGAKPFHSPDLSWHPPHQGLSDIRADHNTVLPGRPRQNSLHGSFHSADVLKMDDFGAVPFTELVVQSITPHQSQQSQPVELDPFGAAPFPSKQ
In assay [4] the target is Macrophage-stimulating protein receptor (Homo sapiens, UniProt Q04912).
Sequence of Macrophage-stimulating protein receptor (Q04912 25-304 limits assumed): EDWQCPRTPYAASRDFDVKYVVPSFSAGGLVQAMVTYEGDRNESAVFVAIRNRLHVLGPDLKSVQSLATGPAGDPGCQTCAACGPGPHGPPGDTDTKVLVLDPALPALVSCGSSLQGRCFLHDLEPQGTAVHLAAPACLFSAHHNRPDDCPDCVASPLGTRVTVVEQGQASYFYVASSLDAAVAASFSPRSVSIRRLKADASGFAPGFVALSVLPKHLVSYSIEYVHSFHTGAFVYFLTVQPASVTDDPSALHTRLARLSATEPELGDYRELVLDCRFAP
Sequence of Macrophage-stimulating protein receptor (Q04912 310-1400 limits assumed): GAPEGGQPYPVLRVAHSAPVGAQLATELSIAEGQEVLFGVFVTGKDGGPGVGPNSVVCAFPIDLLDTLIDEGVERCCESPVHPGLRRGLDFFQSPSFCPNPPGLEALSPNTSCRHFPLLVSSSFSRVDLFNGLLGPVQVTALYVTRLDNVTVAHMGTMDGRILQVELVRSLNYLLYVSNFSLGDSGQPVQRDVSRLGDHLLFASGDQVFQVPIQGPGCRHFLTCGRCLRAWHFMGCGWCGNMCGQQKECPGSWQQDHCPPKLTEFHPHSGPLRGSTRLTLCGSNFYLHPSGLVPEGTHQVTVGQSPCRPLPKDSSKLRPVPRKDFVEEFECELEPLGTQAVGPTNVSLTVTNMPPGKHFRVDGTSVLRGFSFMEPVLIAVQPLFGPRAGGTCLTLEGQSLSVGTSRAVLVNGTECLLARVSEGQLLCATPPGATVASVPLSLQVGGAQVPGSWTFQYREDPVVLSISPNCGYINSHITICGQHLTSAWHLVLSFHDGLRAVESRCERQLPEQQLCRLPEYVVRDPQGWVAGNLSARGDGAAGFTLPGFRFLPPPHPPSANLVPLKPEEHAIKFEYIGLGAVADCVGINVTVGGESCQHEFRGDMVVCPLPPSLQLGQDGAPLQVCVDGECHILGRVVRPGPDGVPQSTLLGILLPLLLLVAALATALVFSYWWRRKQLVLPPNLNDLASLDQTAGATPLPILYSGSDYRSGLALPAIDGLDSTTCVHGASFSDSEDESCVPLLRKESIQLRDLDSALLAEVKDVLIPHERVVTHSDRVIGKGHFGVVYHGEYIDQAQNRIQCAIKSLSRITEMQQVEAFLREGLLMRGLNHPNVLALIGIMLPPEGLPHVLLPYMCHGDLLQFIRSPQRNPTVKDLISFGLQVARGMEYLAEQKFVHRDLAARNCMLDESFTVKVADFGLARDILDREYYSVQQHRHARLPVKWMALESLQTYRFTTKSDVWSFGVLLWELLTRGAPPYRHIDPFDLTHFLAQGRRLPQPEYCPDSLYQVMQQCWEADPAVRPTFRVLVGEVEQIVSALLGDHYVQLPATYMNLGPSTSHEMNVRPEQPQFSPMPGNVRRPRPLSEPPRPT
The target of assay [5] is T2, Ephrin type-B receptor 4 (Homo sapiens, UniProt P54760).
T2 sequence (P54760 whole entry): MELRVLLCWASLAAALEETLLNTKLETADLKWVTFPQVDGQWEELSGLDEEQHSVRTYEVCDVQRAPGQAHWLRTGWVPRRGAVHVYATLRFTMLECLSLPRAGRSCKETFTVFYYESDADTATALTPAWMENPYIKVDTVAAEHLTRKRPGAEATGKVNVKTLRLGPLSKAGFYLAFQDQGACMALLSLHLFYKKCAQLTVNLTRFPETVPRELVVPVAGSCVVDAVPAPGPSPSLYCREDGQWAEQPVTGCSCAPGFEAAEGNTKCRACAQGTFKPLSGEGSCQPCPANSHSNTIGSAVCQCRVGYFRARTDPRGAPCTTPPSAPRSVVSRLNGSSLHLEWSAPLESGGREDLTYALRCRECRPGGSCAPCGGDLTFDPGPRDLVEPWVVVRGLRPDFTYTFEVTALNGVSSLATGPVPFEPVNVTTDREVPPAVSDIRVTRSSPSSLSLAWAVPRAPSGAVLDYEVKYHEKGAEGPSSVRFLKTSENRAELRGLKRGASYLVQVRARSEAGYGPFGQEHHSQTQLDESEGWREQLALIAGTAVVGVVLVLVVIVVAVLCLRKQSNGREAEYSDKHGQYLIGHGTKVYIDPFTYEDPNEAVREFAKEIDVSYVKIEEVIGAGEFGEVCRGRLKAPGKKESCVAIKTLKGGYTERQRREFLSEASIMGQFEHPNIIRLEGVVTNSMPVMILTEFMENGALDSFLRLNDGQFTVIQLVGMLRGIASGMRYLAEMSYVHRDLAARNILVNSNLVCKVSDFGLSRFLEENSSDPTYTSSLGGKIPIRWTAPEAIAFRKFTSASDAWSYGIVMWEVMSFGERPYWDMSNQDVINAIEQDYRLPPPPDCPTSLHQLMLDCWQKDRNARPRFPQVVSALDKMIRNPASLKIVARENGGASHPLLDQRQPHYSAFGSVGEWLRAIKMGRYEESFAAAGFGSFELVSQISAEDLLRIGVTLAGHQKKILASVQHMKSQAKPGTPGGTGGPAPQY

Assay [6] has as its target T3, Serine/threonine-protein kinase Chk1 (Homo sapiens, UniProt O14757).
T3 sequence (O14757 whole entry): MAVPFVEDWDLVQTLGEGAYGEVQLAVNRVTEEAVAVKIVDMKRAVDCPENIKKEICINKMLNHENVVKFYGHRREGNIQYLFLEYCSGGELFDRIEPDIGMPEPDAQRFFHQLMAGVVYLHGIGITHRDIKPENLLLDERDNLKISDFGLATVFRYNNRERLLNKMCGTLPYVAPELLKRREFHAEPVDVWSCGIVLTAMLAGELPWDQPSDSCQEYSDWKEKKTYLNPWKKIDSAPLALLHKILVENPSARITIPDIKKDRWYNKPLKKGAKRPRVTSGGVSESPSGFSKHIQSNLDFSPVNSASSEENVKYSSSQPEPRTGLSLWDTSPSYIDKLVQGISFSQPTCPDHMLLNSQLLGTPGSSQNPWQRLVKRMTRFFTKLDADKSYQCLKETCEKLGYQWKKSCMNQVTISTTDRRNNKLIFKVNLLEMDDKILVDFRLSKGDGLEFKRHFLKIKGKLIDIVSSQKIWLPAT

For assay [7], the target named is Cyclin-dependent kinase 4 (Homo sapiens, UniProt P11802).
Sequence of Cyclin-dependent kinase 4 (P11802 whole entry): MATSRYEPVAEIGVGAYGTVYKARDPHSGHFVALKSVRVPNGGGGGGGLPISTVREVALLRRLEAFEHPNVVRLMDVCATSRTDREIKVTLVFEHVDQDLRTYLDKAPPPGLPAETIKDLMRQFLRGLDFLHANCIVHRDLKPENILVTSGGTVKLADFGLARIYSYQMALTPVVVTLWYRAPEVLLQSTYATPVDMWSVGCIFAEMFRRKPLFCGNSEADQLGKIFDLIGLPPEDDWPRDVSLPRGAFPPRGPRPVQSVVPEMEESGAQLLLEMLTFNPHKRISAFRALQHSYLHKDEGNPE
Assay [8] concerns the target Aurora kinase B (Homo sapiens, UniProt Q96GD4).
Assay [9] has as its target 26S proteasome regulatory subunit 6B (Homo sapiens, UniProt P43686).
Also: in the data inactive means no Kd found up to 30 µM.

Sequence of Aurora kinase B (Q96GD4 whole entry): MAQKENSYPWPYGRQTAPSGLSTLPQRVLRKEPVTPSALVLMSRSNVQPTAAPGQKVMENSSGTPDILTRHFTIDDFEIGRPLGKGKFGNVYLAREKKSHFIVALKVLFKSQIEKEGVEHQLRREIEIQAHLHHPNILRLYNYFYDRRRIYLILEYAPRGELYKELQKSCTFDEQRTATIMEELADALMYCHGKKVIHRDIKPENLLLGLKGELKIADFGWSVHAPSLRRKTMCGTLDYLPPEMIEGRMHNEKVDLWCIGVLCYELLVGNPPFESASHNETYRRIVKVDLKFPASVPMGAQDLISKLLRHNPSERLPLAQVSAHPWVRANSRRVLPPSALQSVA
Sequence of 26S proteasome regulatory subunit 6B (P43686 whole entry): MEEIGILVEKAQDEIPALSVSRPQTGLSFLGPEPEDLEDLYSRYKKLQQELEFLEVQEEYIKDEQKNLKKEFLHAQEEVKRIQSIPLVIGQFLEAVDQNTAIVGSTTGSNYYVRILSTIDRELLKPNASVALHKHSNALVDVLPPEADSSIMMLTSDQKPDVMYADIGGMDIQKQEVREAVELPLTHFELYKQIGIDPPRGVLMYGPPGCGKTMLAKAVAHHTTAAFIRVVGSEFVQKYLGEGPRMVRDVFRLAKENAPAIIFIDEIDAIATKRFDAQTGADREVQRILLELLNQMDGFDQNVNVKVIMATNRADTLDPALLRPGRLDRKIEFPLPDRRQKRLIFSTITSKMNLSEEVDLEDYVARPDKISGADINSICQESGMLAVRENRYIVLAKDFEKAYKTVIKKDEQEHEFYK

`CCn1c(C(=O)N(C2CC2)C2CC2)cc2c3c(ncn3C)c(Nc3cc(C)n(C)n3)nc21` [BMS-911543]: the Kd in [1], in [2], in [3], in assay [4], in assay [5] and in [6] was > 30 µM (inactive) throughout. The Kd in [7], in assay [8] and in assay [9] was > 30 µM (inactive) throughout.

Take `COc1cc2ncnc(Oc3cccc(NC(=O)Nc4cc(C(C)(C)C(F)(F)F)on4)c3)c2cc1OC` [CEP-32496]: the Kd (in general, the equilibrium constant for the complex coming apart) in [1] is > 30 µM (inactive); in assay [2] it was > 30 µM (inactive); in assay [3], > 30 µM (inactive); in [4] it was > 30 µM (inactive); in [5], 9.82 µM (active); in [6], > 30 µM (inactive). The Kd in assay [7], in assay [8] and in assay [9] was > 30 µM (inactive) each time.

Regarding `Cc1cc(Nc2ncc(Cl)c(Nc3ccccc3S(=O)(=O)C(C)C)n2)c(OC(C)C)cc1C1CCNCC1` [CERITINIB], the Kd in assay [1], in assay [2], in assay [3], in [4], in assay [5] and in [6] was > 30 µM (inactive) each time. Further, the Kd in assay [7], in assay [8] and in [9] was > 30 µM (inactive) in each case.

Turning to `COc1c(OCCCN2CCOCC2)ccc2c1N=C(NC(=O)c1cnc(N)nc1)N1CCN=C21` [COPANLISIB], the Kd in assay [1], in assay [2], in assay [3], in [4], in assay [5] and in assay [6] was > 30 µM (inactive) throughout. In addition, the Kd in assay [7], in assay [8] and in [9] was > 30 µM (inactive) each time.

Consider `COCC(=O)NC/C=C/c1ccc2ncnc(Nc3ccc(Oc4ccc(C)nc4)c(C)c3)c2c1` [CP-724714], for which the Kd in [1], in assay [2], in assay [3], in assay [4], in assay [5] and in [6] was > 30 µM (inactive) in each case. Further, the Kd in assay [7], in assay [8] and in [9] was > 30 µM (inactive) throughout.

Regarding `CCS(=O)(=O)N1CCN(c2ccc(Nc3ncc(C(N)=O)c(NC4CC4)n3)cc2)CC1` [Cerdulatinib Hydrochloride], the Kd in assay [1] is 0.001 µM (active); in assay [2], > 30 µM (inactive); in [3], 0.0008 µM (active); in assay [4], > 30 µM (inactive); in assay [5] it was > 30 µM (inactive); in assay [6], 0.701 µM (active). Further, the Kd in assay [7] was > 30 µM (inactive); in [8], 3.79 µM (active); in [9] it was > 30 µM (inactive).

Consider `Cc1nc2cc(-n3ncc(C(=O)c4cc5ccccc5[nH]4)c3N)ccc2[nH]1` [FGFR INHIBITOR DEBIO 1347], for which the Kd in assay [1], in assay [2], in assay [3], in assay [4], in [5] and in assay [6] was > 30 µM (inactive) throughout. Further, the Kd in [7], in assay [8] and in [9] was > 30 µM (inactive) throughout.

On to `O=C(Nc1nc2cccc(-c3ccc(CN4CCS(=O)(=O)CC4)cc3)n2n1)C1CC1` [FILGOTINIB], for which the Kd is 4.99 µM (active) in [1]; > 30 µM (inactive) in assay [2]; 6.59 µM (active) in assay [3]; > 30 µM (inactive) in [4]; > 30 µM (inactive) in assay [5]; > 30 µM (inactive) in [6]. The Kd in [7], in [8] and in assay [9] was > 30 µM (inactive) throughout.

Take `Cc1cccc(-c2nn3c(c2-c2ccnc4ccc(C(N)=O)cc24)CCC3)n1` [GALUNISERTIB]: the Kd in [1], in [2], in [3], in assay [4], in [5] and in assay [6] was > 30 µM (inactive) throughout. The Kd in [7], in [8] and in assay [9] was > 30 µM (inactive) each time.

`COc1ccc(S(=O)(=O)N(C(C)=O)c2ccccc2/C=C/c2cc[n+]([O-])cc2)cc1` [HMN-214]: the Kd in assay [1], in assay [2], in [3], in assay [4], in [5] and in [6] was > 30 µM (inactive) throughout. Moreover, the Kd in assay [7], in assay [8] and in [9] was > 30 µM (inactive) throughout.

Consider `CNC(=O)c1cccc2cc(Oc3ccnc4cc(OCC5(N)CC5)c(OC)cc34)ccc12` [LUCITANIB], for which the Kd in assay [1], in [2], in [3], in assay [4], in [5] and in assay [6] was > 30 µM (inactive) throughout. Besides, the Kd is > 30 µM (inactive) in [7], 22.9 µM (active) in [8] and > 30 µM (inactive) in assay [9].
